From patent US8658604B2, “Template-fixed beta-hairpin peptidomimetics with protease inhibitory activity” (Polyphor Ltd, priority 2005, dated 2014) come the findings set out here.

Each structure is given as a SMILES string. Where a SMILES comes first, the peptide text is derived from it.

Assay [1] has as its target T1, CathepsinG, from human neutrophils (Homo sapiens, UniProt P08311).
T1 sequence (P08311 21-244): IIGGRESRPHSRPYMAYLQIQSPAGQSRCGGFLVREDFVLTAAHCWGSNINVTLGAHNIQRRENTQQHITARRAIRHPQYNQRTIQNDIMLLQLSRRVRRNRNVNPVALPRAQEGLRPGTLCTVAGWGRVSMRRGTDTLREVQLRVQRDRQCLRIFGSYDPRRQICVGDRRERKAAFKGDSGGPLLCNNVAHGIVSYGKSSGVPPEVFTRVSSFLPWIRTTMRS
The assay is described as follows: Enzymatic assay, cathepsin G. To be noted: Cathepsin G IC50.

For assay [2], the target named is T2, Elastase from human neutrophils (Homo sapiens, UniProt P08246).
T2 sequence (P08246 30-267): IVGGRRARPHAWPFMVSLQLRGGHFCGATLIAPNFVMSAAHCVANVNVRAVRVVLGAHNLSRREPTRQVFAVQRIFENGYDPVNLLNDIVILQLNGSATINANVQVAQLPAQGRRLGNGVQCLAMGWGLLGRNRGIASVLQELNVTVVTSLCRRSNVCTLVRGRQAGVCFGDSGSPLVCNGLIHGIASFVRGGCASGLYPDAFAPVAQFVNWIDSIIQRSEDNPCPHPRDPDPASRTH
Put plainly: Enzymatic assay, elastase. To be noted: Elastase IC50.

Broadly, the IC50 is the concentration needed to halve the response being measured. The low end stands for higher potency, the high end for lower potency. For the compound `CC[C@H](C)[C@@H]1NC(=O)[C@@H]2CCCN2C(=O)[C@@H]2CCCN2C(=O)[C@H](CC(=O)O)NC(=O)[C@H](CO)NC(=O)[C@H](CCCCN)NC(=O)[C@H]([C@@H](C)O)NC(=O)[C@@H]2CSSC[C@H](NC1=O)C(=O)N[C@@H](Cc1ccc(O)cc1)C(=O)N1CCC[C@@H]1C(=O)N1CCC[C@H]1C(=O)N[C@@H](Cc1ccc(N)cc1)C(=O)N2` [Ex. 32] (HELM PEPTIDE1{[Nc1ccc(C[C@H](N[*:1])C(=O)[*:2])cc1].C.T.K.S.D.P.P.I.C.Y.[dP].P}$PEPTIDE1,PEPTIDE1,2:R3-10:R3|PEPTIDE1,PEPTIDE1,1:R1-13:R2$$$V2.0), the half-maximal inhibitory concentration (IC50) in assay [1] was found to be 52 nM.

`CC[C@H](C)[C@@H]1NC(=O)[C@@H]2CCCN2C(=O)[C@@H]2CCCN2C(=O)[C@H](CC(=O)O)NC(=O)[C@H](CO)NC(=O)[C@H](CCCCN)NC(=O)[C@H]([C@@H](C)O)NC(=O)[C@@H]2CSSC[C@H](NC1=O)C(=O)N[C@@H](CC(N)=O)C(=O)N1CCC[C@@H]1C(=O)N1CCC[C@H]1C(=O)N[C@@H](CC1CCCCC1)C(=O)N2` [Ex. 33] (HELM PEPTIDE1{[Cha].C.T.K.S.D.P.P.I.C.N.[dP].P}$PEPTIDE1,PEPTIDE1,2:R3-10:R3|PEPTIDE1,PEPTIDE1,1:R1-13:R2$$$V2.0) yielded a half-maximal inhibitory concentration (IC50) in assay [1] of 45 nM. Take `CC[C@H](C)[C@@H]1NC(=O)[C@@H]2CCCN2C(=O)[C@@H]2CCCN2C(=O)[C@H](CC(=O)O)NC(=O)[C@H](CO)NC(=O)[C@H](CCCCN)NC(=O)[C@H]([C@@H](C)O)NC(=O)[C@@H]2CSSC[C@H](NC1=O)C(=O)N[C@@H]([C@@H](C)O)C(=O)N1CCC[C@@H]1C(=O)N1CCC[C@H]1C(=O)N[C@@H](CC1CCCCC1)C(=O)N2` [Ex. 34] (HELM PEPTIDE1{[Cha].C.T.K.S.D.P.P.I.C.T.[dP].P}$PEPTIDE1,PEPTIDE1,2:R3-10:R3|PEPTIDE1,PEPTIDE1,1:R1-13:R2$$$V2.0): half-maximal inhibition in assay [1] (IC50) required 56 nM. As for `CC[C@H](C)[C@@H]1NC(=O)[C@@H]2CCCN2C(=O)[C@@H]2CCCN2C(=O)[C@H](CC(=O)O)NC(=O)[C@H](CO)NC(=O)[C@H](CCCCN)NC(=O)[C@H]([C@@H](C)O)NC(=O)[C@@H]2CSSC[C@H](NC1=O)C(=O)N[C@@H](CC(=O)O)C(=O)N1CCC[C@@H]1C(=O)N1CCC[C@H]1C(=O)N[C@@H](CC1CCCCC1)C(=O)N2` [Ex. 35] (HELM PEPTIDE1{[Cha].C.T.K.S.D.P.P.I.C.D.[dP].P}$PEPTIDE1,PEPTIDE1,2:R3-10:R3|PEPTIDE1,PEPTIDE1,1:R1-13:R2$$$V2.0), the IC50 in assay [1] worked out at 54 nM. In assay [1], `CCCC[C@@H]1NC(=O)[C@@H]2CCCN2C(=O)[C@H]2CCCN2C(=O)[C@H](CC(N)=O)NC(=O)[C@@H]2CSSC[C@H](NC1=O)C(=O)N[C@@H]([C@@H](C)O)C(=O)N[C@@H](CCCCN)C(=O)N[C@@H](CO)C(=O)N[C@@H](CC(=O)O)C(=O)N1CCC[C@H]1C(=O)N1CCC[C@H]1C(=O)N[C@@H]([C@@H](C)CC)C(=O)N2` [Ex. 41] (HELM PEPTIDE1{[Nle].C.T.K.S.D.P.P.I.C.N.[dP].P}$PEPTIDE1,PEPTIDE1,2:R3-10:R3|PEPTIDE1,PEPTIDE1,1:R1-13:R2$$$V2.0) had an IC50 of 49 nM. `CCCC[C@@H]1NC(=O)[C@@H]2CCCN2C(=O)[C@H]2CCCN2C(=O)[C@H](CC(=O)O)NC(=O)[C@@H]2CSSC[C@H](NC1=O)C(=O)N[C@@H]([C@@H](C)O)C(=O)N[C@@H](CCCCN)C(=O)N[C@@H](CO)C(=O)N[C@@H](CC(=O)O)C(=O)N1CCC[C@H]1C(=O)N1CCC[C@H]1C(=O)N[C@@H]([C@@H](C)CC)C(=O)N2` [Ex. 43] (HELM PEPTIDE1{[Nle].C.T.K.S.D.P.P.I.C.D.[dP].P}$PEPTIDE1,PEPTIDE1,2:R3-10:R3|PEPTIDE1,PEPTIDE1,1:R1-13:R2$$$V2.0) came in with an IC50 in assay [1] of 77 nM. As to `CC[C@H](C)[C@@H]1NC(=O)[C@@H]2CCCN2C(=O)[C@@H]2CCCN2C(=O)[C@H](CC(=O)O)NC(=O)[C@H](CO)NC(=O)[C@H](CCCCN)NC(=O)[C@H]([C@@H](C)O)NC(=O)[C@@H]2CSSC[C@H](NC1=O)C(=O)N[C@@H](CC(N)=O)C(=O)N1CCC[C@@H]1C(=O)N1CCC[C@H]1C(=O)N[C@@H](Cc1ccccc1Cl)C(=O)N2` [Ex. 45] (HELM PEPTIDE1{[O=C([C@H](Cc1ccccc1Cl)N[*:1])[*:2]].C.T.K.S.D.P.P.I.C.N.[dP].P}$PEPTIDE1,PEPTIDE1,2:R3-10:R3|PEPTIDE1,PEPTIDE1,1:R1-13:R2$$$V2.0), it took 47 nM to reach half-maximal inhibition in assay [1] (IC50).

With `CC[C@H](C)[C@@H]1NC(=O)[C@@H]2CCCN2C(=O)[C@@H]2CCCN2C(=O)[C@H](CC(=O)O)NC(=O)[C@H](CO)NC(=O)[C@H](CCCCN)NC(=O)[C@H]([C@@H](C)O)NC(=O)[C@@H]2CSSC[C@H](NC1=O)C(=O)N[C@@H](CO)C(=O)N1CCC[C@@H]1C(=O)N[C@@H](CC(C)C)C(=O)N[C@@H](Cc1ccccc1)C(=O)N2` [Ex. 51] (HELM PEPTIDE1{C.S.[dP].L.F.C.T.K.S.D.P.P.I}$PEPTIDE1,PEPTIDE1,1:R3-6:R3|PEPTIDE1,PEPTIDE1,1:R1-13:R2$$$V2.0), the IC50 was greater than 100000 nM in assay [2] and 91 nM in assay [1]. On to `CC[C@H](C)[C@@H]1NC(=O)[C@@H]2CCCN2C(=O)[C@@H]2CCCN2C(=O)[C@H](CC(=O)O)NC(=O)[C@H](CO)NC(=O)[C@H](CCCCN)NC(=O)[C@H]([C@@H](C)O)NC(=O)[C@@H]2CSSC[C@H](NC1=O)C(=O)N[C@@H](CO)C(=O)N1CCC[C@@H]1C(=O)N1CCC[C@H]1C(=O)N[C@@H](Cc1c[nH]c3ccccc13)C(=O)N2` [Ex. 61] (HELM PEPTIDE1{W.C.T.K.S.D.P.P.I.C.S.[dP].P}$PEPTIDE1,PEPTIDE1,2:R3-10:R3|PEPTIDE1,PEPTIDE1,1:R1-13:R2$$$V2.0), for which half-maximal inhibition in assay [1] (IC50) required 72 nM. `CC[C@H](C)[C@@H]1NC(=O)[C@@H]2CCCN2C(=O)[C@@H]2CCCN2C(=O)[C@H](CC(=O)O)NC(=O)[C@H](CO)NC(=O)[C@H](CCCCN)NC(=O)[C@H]([C@@H](C)O)NC(=O)[C@@H]2CSSC[C@H](NC1=O)C(=O)N[C@@H](CO)C(=O)N1CCC[C@@H]1C(=O)N1CCC[C@H]1C(=O)N[C@@H](Cc1cccc3ccccc13)C(=O)N2` [Ex. 62] (HELM PEPTIDE1{[O=C([C@H](Cc1cccc2ccccc12)N[*:1])[*:2]].C.T.K.S.D.P.P.I.C.S.[dP].P}$PEPTIDE1,PEPTIDE1,2:R3-10:R3|PEPTIDE1,PEPTIDE1,1:R1-13:R2$$$V2.0): it took 69 nM to reach half-maximal inhibition in assay [1] (IC50). In assay [1], `C[C@@H](O)[C@@H]1NC(=O)[C@@H]2CSSC[C@H](NC(=O)[C@H](CC3CCCCC3)NC(=O)[C@@H]3CCCN3C(=O)[C@@H]3CCCN3C(=O)[C@H](CC(=O)O)NC(=O)[C@H](CO)NC(=O)[C@H](CCCCN)NC1=O)C(=O)N[C@@H](Cc1ccc(O)cc1)C(=O)N1CCC[C@@H]1C(=O)N1CCC[C@H]1C(=O)N[C@@H](C1CCCCC1)C(=O)N2` [Ex. 66] (HELM PEPTIDE1{[O=C([C@@H](N[*:1])C1CCCCC1)[*:2]].C.T.K.S.D.P.P.[Cha].C.Y.[dP].P}$PEPTIDE1,PEPTIDE1,2:R3-10:R3|PEPTIDE1,PEPTIDE1,1:R1-13:R2$$$V2.0) displayed a concentration for half-maximal inhibition (IC50) of 48 nM.

For the compound `CC[C@H](C)[C@@H]1NC(=O)[C@@H]2CCCN2C(=O)[C@@H]2CCCN2C(=O)[C@H](CC(=O)O)NC(=O)[C@H](CO)NC(=O)[C@H](CCCCN)NC(=O)[C@H]([C@@H](C)O)NC(=O)[C@@H]2CSSC[C@H](NC1=O)C(=O)N[C@@H](CO)C(=O)N[C@H](CC(N)=O)C(=O)N1CCC[C@H]1C(=O)N[C@@H](Cc1ccccc1)C(=O)N2` [Ex. 69] (HELM PEPTIDE1{C.S.[dN].P.F.C.T.K.S.D.P.P.I}$PEPTIDE1,PEPTIDE1,1:R3-6:R3|PEPTIDE1,PEPTIDE1,1:R1-13:R2$$$V2.0), the 50% inhibitory concentration (IC50) in assay [1] came out at 68 nM. Turning to `C[C@@H](O)[C@@H]1NC(=O)[C@@H]2CSSC[C@H](NC(=O)[C@H](CC3CCCCC3)NC(=O)[C@@H]3CCCN3C(=O)[C@@H]3CCCN3C(=O)[C@H](CC(=O)O)NC(=O)[C@H](CO)NC(=O)[C@H](CCCCN)NC1=O)C(=O)N[C@@H](CC(N)=O)C(=O)N1CCC[C@@H]1C(=O)N1CCC[C@H]1C(=O)N[C@@H](Cc1ccc(N)cc1)C(=O)N2` [Ex. 70] (HELM PEPTIDE1{[Nc1ccc(C[C@H](N[*:1])C(=O)[*:2])cc1].C.T.K.S.D.P.P.[Cha].C.N.[dP].P}$PEPTIDE1,PEPTIDE1,2:R3-10:R3|PEPTIDE1,PEPTIDE1,1:R1-13:R2$$$V2.0), in assay [1], the half-inhibitory concentration (IC50) is 69 nM.

As to `C[C@@H](O)[C@@H]1NC(=O)[C@@H]2CSSC[C@H](NC(=O)[C@H](CC3CCCCC3)NC(=O)[C@@H]3CCCN3C(=O)[C@@H]3CCCN3C(=O)[C@H](CC(=O)O)NC(=O)[C@H](CO)NC(=O)[C@H](CCCCN)NC1=O)C(=O)N[C@@H](CCCNC(=N)N)C(=O)N1CCC[C@@H]1C(=O)N1CCC[C@H]1C(=O)N[C@@H](C1CCCCC1)C(=O)N2` [Ex. 71] (HELM PEPTIDE1{[O=C([C@@H](N[*:1])C1CCCCC1)[*:2]].C.T.K.S.D.P.P.[Cha].C.R.[dP].P}$PEPTIDE1,PEPTIDE1,2:R3-10:R3|PEPTIDE1,PEPTIDE1,1:R1-13:R2$$$V2.0), the IC50 in assay [1] amounted to 70 nM. The compound `CC[C@H](C)[C@@H]1NC(=O)[C@@H]2CCCN2C(=O)[C@@H]2CCCN2C(=O)[C@H](CC(=O)O)NC(=O)[C@H](CO)NC(=O)[C@H](CCCCN)NC(=O)[C@H]([C@@H](C)O)NC(=O)[C@@H]2CSSC[C@H](NC1=O)C(=O)N[C@@H](CO)C(=O)N[C@H]([C@H](C)O)C(=O)N1CCC[C@H]1C(=O)N[C@@H](Cc1ccccc1)C(=O)N2` [Ex. 72] (HELM PEPTIDE1{C.S.[dT].P.F.C.T.K.S.D.P.P.I}$PEPTIDE1,PEPTIDE1,1:R3-6:R3|PEPTIDE1,PEPTIDE1,1:R1-13:R2$$$V2.0) showed a 50% inhibitory concentration (IC50) in assay [1] of 87 nM.
